Experimental findings from US4946854A, “3-aminobenzoylphenylureas useful for controlling parasites and insects that attack domestic animals and livestock” (priority 1987, dated 1990) are described below.

One data set relates to Ctenocephalides felis. Description: Action against fleas (infested dogs, oral). Type of data set: in vivo, Ctenocephalides felis (on dogs). The note with it: 50 mg kg-1 day-1, dogs. The protocol: Dogs having the proven ability to support a flea population permanently are infested with 100 cat fleas Ctenocephalides felis Bouche. The infested dogs are then divided into 3 groups of 2 animals. […] The test compound is administered in the form of an aqueous suspension (by means of a syringe). The third group of animals is not treated and serves as a control group.
After 3, 8 and 10 days, the eggs of the fleas are collected from the paper which is under the dog cages. The eggs are counted, placed on a medium suitable for the culture of larvae and incubated. A count is made of the resulting pupae and fully grown fleas.

The subject of data set [1] is Lucilia sericata and L. cuprina. Description: Action against blowflies. It counts as in vivo. The note with it: 6.4 ppm, after at the most 96 h. The protocol:
Freshly deposited eggs of the blowfly species Lucilia sericata and L. cuprina are placed in small portions (30 to 50 eggs) into each of a number of test tubes in which 4 ml of nutrient medium have been mixed with 1 ml of test solution at the intermediate dilution of the active ingredient necessary to obtain the final concentration. After inoculating the culture medium, the test tubes are sealed with cotton wool plugs and are then incubated in an incubator at 30° C. for 4 days. In the untreated medium, larvae about 1 cm in length (stage 3) have developed by the end of this 4-day period. When a compound is active the larvae are by the end of this period either dead or distinctly retarded. Four tests are carried out simultaneously with concentrations of 100, 40, 16 and 6.4 ppm, respectively. The activity is measured according to the lowest concentration that is still fully active (LC 100).

A short description of data set [2]: Physico-chemical characteristics: solubilities. Type of data set: physicochemical.
Data set [3] can be described thus: Bio-availability: blood plasma level after injection of calves. Type of data set: in vivo. The protocol:
As a measure of bio-availability, the blood plasma level of the compounds is determined on several days after the injection of calves with, in each case, 1 mg of compound/kg body weight.

The mark [4] stands for this setting: hexane, organic solvent or mixture, read-out: solubility in hexane.
[5] abbreviates: water, read-out: solubility in water.

Converted amounts (≈) assume the structure as drawn. Like-named read-outs stand apart in the source and are kept apart here.

Take `Nc1ccc(F)c(C(=O)NC(=O)Nc2ccc(F)c(Oc3ncc(C(F)(F)F)cc3Cl)c2)c1F` [Compound 1.6, N-[3-(3-chloro-5-trifluoromethylpyridyl-2-oxy)-4-fluorophenyl]-N'-[2,6-difluoro-3-aminobenzoyl]-urea]: the activity entry with Ctenocephalides felis is “more than 50%”.

Turning to `Nc1ccc(F)c(C(=O)NC(=O)Nc2ccc(Cl)c(Oc3ncc(C(F)(F)C(F)(Cl)Cl)cc3Cl)c2)c1F` [Compound 1.9], in data set [1], the “mortality of the larvae” value is reported as 100%.

On to `Nc1ccc(F)c(C(=O)NC(=O)Nc2cccc(Sc3ncc(C(F)(F)F)cc3Cl)c2)c1F` [Compound 1.12], for which the activity entry with Ctenocephalides felis was “more than 50%”.

Regarding `O=C(NC(=O)c1c(F)cccc1F)Nc1ccc(Cl)c(Oc2ncc(C(F)(F)F)cc2Cl)c1` [(A)], the solubility is 3 µg/mL (≈ 5.93 µM) in data set [2] (setting [4]) and 0.02 µg/mL (≈ 0.0395 µM) in data set [2] (setting [5]). Besides, in data set [2], the solubility in isopropanol came out at 0.09%. The solubility in n-octanol in data set [2] amounted to 0.065%. Besides, the concentration at 24 h is 7 ng/mL in data set [3] (bovine, plasma, 1 mg/kg, day 1, calf 1, 1 mg/kg injection) and 5 ng/mL in data set [3] (bovine, plasma, 1 mg/kg, day 1, calf 2, 1 mg/kg injection). Further, the concentration at 168 h in data set [3] (bovine, plasma, 1 mg/kg, day 7, calf 1, 1 mg/kg injection) is 3 ng/mL; in data set [3] (bovine, plasma, 1 mg/kg, day 7, calf 2, 1 mg/kg injection), 4 ng/mL. For the same compound, the concentration at 336 h came to 4 ng/mL in data set [3] (bovine, plasma, 1 mg/kg, day 14, calf 1, 1 mg/kg injection) and 9 ng/mL in data set [3] (bovine, plasma, 1 mg/kg, day 14, calf 2, 1 mg/kg injection). Besides, the concentration at 504 h in data set [3] (bovine, plasma, 1 mg/kg, day 21, calf 1, 1 mg/kg injection) was 7 ng/mL; in data set [3] (bovine, plasma, 1 mg/kg, day 21, calf 2, 1 mg/kg injection), 10 ng/mL. In addition, the concentration at 672 h in data set [3] (bovine, plasma, 1 mg/kg, day 28, calf 1, 1 mg/kg injection) turned out to be 6 ng/mL; in data set [3] (bovine, plasma, 1 mg/kg, day 28, calf 2, 1 mg/kg injection), 5 ng/mL. For the same compound, the concentration at 840 h turned out to be 6 ng/mL in data set [3] (bovine, plasma, 1 mg/kg, day 35, calf 1, 1 mg/kg injection) and 10 ng/mL in data set [3] (bovine, plasma, 1 mg/kg, day 35, calf 2, 1 mg/kg injection). The concentration at 1008 h in data set [3] (bovine, plasma, 1 mg/kg, day 42, calf 1, 1 mg/kg injection) came out at 9 ng/mL; in data set [3] (bovine, plasma, 1 mg/kg, day 42, calf 2, 1 mg/kg injection), 6 ng/mL. The concentration at 1176 h in data set [3] (bovine, plasma, 1 mg/kg, day 49, calf 1, 1 mg/kg injection) was 4 ng/mL; in data set [3] (bovine, plasma, 1 mg/kg, day 49, calf 2, 1 mg/kg injection), 4 ng/mL. Besides, the concentration at 1344 h in data set [3] (bovine, plasma, 1 mg/kg, day 56, calf 1, 1 mg/kg injection) is 5 ng/mL; in data set [3] (bovine, plasma, 1 mg/kg, day 56, calf 2, 1 mg/kg injection), 5 ng/mL. In addition, the concentration at 1512 h in data set [3] (bovine, plasma, 1 mg/kg, day 63, calf 1, 1 mg/kg injection) worked out at 4 ng/mL; in data set [3] (bovine, plasma, 1 mg/kg, day 63, calf 2, 1 mg/kg injection) it was 6 ng/mL. Further, the concentration at 1680 h in data set [3] (bovine, plasma, 1 mg/kg, day 70, calf 1, 1 mg/kg injection) was 7 ng/mL; in data set [3] (bovine, plasma, 1 mg/kg, day 70, calf 2, 1 mg/kg injection), 5 ng/mL. Besides, the concentration at 1848 h in data set [3] (bovine, plasma, 1 mg/kg, day 77, calf 1, 1 mg/kg injection) came to 5 ng/mL; in data set [3] (bovine, plasma, 1 mg/kg, day 77, calf 2, 1 mg/kg injection) it was 2 ng/mL. The concentration at 2016 h in data set [3] (bovine, plasma, 1 mg/kg, day 84, calf 1, 1 mg/kg injection) was 7 ng/mL; in data set [3] (bovine, plasma, 1 mg/kg, day 84, calf 2, 1 mg/kg injection) it was 7 ng/mL. For the same compound, in data set [3] (bovine, plasma, calves, injection, 1 mg/kg, read-out: maximum concentration in the blood (plasma)), the Cmax lay within 7 to 10 ng/mL. Also, the “persistence of blood plasma level” value in data set [3] (level of 7 to 10 ppb, calves, 1 mg/kg) was “maintained over a relatively long period”.

As for `Nc1ccc(F)c(C(=O)NC(=O)Nc2ccc(Cl)c(Oc3ncc(C(F)(F)F)cc3Cl)c2)c1F` [Compound 1.1, N-[3-(3-chloro-5-trifluoromethylpyridyl-2-oxy)-4-chlorophenyl]-N'-[2,6-difluoro-3-aminobenzoyl]-urea], the activity entry with Ctenocephalides felis is “more than 50%”. Also, the solubility in data set [2] (setting [4]) was approximately 60 µg/mL (≈ 115 µM); in data set [2] (setting [5]) it was 0.11 µg/mL (≈ 0.211 µM). The compound also returned a solubility in isopropanol in data set [2] of 0.30%. Besides, the solubility in n-octanol in data set [2] was found to be 0.56%. In addition, the concentration at 24 h was found to be 126 ng/mL in data set [3] (bovine, plasma, 1 mg/kg, day 1, calf 3, 1 mg/kg injection) and 185 ng/mL in data set [3] (bovine, plasma, 1 mg/kg, day 1, calf 4, 1 mg/kg injection). Further, the concentration at 168 h in data set [3] (bovine, plasma, 1 mg/kg, day 7, calf 3, 1 mg/kg injection) is 48 ng/mL; in data set [3] (bovine, plasma, 1 mg/kg, day 7, calf 4, 1 mg/kg injection), 66 ng/mL. Moreover, the concentration at 336 h is 16 ng/mL in data set [3] (bovine, plasma, 1 mg/kg, day 14, calf 3, 1 mg/kg injection) and 27 ng/mL in data set [3] (bovine, plasma, 1 mg/kg, day 14, calf 4, 1 mg/kg injection). For the same compound, the concentration at 504 h in data set [3] (bovine, plasma, 1 mg/kg, day 21, calf 3, 1 mg/kg injection) worked out at 10 ng/mL; in data set [3] (bovine, plasma, 1 mg/kg, day 21, calf 4, 1 mg/kg injection), 12 ng/mL. The concentration at 672 h in data set [3] (bovine, plasma, 1 mg/kg, day 28, calf 3, 1 mg/kg injection) turned out to be 5 ng/mL; in data set [3] (bovine, plasma, 1 mg/kg, day 28, calf 4, 1 mg/kg injection), 6 ng/mL. In addition, the concentration at 840 h in data set [3] (bovine, plasma, 1 mg/kg, day 35, calf 3, 1 mg/kg injection) stood at 2 ng/mL; in data set [3] (bovine, plasma, 1 mg/kg, day 35, calf 4, 1 mg/kg injection) it was 4 ng/mL. Also, in data set [3] (calves, injection, 1 mg/kg), the “bio-availability compared with (A)” value is “distinctly better bio-availability than does compound (A)”. Besides, the “excretion compared with (A)” value in data set [3] (calves, injection, 1 mg/kg) is given as “excreted considerably more rapidly than (A)”. In addition, the “reaching of high concentration in the blood plasma” value in data set [3] (calves, injection, 1 mg/kg) was “a high concentration in the blood plasma is reached very rapidly”. The Blood plasma level in data set [3] (day 42, calf 3, 1 mg/kg injection) is on record as 0 ppb; in data set [3] (day 42, calf 4, 1 mg/kg injection), 0 ppb; in data set [3] (day 49, calf 3, 1 mg/kg injection), 0 ppb; in data set [3] (day 49, calf 4, 1 mg/kg injection), 0 ppb; in data set [3] (day 56, calf 3, 1 mg/kg injection), 0 ppb; in data set [3] (day 56, calf 4, 1 mg/kg injection), 0 ppb. In addition, the Blood plasma level was found to be 0 ppb in data set [3] (day 63, calf 4, 1 mg/kg injection); 0 ppb in data set [3] (day 70, calf 4, 1 mg/kg injection); 0 ppb in data set [3] (day 77, calf 4, 1 mg/kg injection); 0 ppb in data set [3] (day 84, calf 4, 1 mg/kg injection). Moreover, the “blood plasma values compared with (A)” value in data set [3] (very rapidly after administration, calves, 1 mg/kg) is “higher blood plasma values”.

What is called solubility is the concentration that dissolves in the medium under given conditions.
